The values below come from patent publication US10093678B2, “Azaspiro derivatives as TRPM8 antagonists” (RaQualia Pharma Inc., priority 2014, dated 2018).

pIC50: −log10 of the molar value.

T1 sequence (Q7Z2W7 whole entry): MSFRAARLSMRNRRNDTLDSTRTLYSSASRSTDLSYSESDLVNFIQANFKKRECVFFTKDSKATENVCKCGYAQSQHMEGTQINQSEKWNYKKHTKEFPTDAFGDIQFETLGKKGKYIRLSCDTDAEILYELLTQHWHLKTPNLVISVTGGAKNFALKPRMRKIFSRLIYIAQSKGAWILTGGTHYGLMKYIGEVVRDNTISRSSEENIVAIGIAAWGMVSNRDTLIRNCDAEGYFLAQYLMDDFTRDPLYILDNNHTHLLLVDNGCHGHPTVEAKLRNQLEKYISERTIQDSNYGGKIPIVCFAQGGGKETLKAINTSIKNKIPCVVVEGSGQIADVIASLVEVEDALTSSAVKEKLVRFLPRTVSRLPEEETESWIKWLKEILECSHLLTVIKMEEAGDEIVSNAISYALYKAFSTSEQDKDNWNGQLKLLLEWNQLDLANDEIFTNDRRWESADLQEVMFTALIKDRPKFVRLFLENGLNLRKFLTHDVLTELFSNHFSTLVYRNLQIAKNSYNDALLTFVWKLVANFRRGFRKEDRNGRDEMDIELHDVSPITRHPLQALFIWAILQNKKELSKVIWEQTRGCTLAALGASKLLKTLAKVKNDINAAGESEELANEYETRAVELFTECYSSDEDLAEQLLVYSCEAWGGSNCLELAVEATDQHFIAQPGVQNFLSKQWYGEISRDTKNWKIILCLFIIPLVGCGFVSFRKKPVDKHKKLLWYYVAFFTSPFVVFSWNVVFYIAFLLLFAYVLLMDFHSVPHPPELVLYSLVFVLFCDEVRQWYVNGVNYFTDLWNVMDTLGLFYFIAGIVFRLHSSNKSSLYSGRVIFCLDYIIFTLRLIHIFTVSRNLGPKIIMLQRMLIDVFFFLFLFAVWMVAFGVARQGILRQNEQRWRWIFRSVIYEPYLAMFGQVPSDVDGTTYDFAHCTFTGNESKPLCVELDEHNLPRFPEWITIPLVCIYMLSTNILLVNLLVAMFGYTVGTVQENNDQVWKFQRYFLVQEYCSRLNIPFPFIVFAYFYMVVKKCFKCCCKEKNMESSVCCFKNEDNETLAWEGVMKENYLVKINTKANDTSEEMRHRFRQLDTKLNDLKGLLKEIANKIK

The test concerns the target T1, human TRPM8 (Homo sapiens, UniProt Q7Z2W7).
T1 construct: expressed in transfected cells; host or cells: HEK293
The test is described as follows: Menthol-induced Ca2+ influx in HEK293 cells stably expressing human TRPM8. It counts as cell-based. The following applies: 30 microM menthol-induced Ca2+ influx, read-out: IC50 against TRPM8. An outline of the steps:
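HEK293 cells stably expressing human TRPM8 were loaded with Fluo4-AM for 1 h at room temperature, preincubated 5 min with compound, then challenged with 30 microM menthol. Calcium rise was read by FDSS imaging. IC50 came from 11-point curves using duplicate-well means.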
In the case of `O=C(CN1C(=O)NC2(CCC(F)(F)CC2)C1=O)c1cc(F)c(-c2ccccc2CO)c(F)c1` [Example 13-32], the pIC50 (commonly the IC50 on a negative log10 scale, so that one unit is a factor of ten) is above 7.00.

In the case of `O=C(CN1C(=O)NC2(CCC(F)(F)CC2)C1=O)c1ccc(-c2cccnc2N2CC(O)C2)cc1` [Example 6-48], the pIC50 was above 6.30.

As for `O=C(CN1C(=O)NC2(CCC(F)(F)CC2)C1=O)c1ccc(-c2ccccc2CCO)cc1` [Example 6-106], the pIC50 was above 7.00.

Consider `N#Cc1ccncc1-c1ccc(C(=O)CN2C(=O)NC3(CCC(F)(F)CC3)C2=O)cc1` [Example 6-16], for which the pIC50 is above 7.00.

Take `Cn1cc2c(-c3ccc(C(=O)CN4C(=O)NC5(CCC(F)(F)CC5)C4=O)cc3)cccc2n1` [Example 6-69]: the pIC50 is above 6.30.

For the compound `O=C(CN1C(=O)NC2(CCC(F)(F)CC2)C1=O)c1ccc(-c2ccncc2Cl)cc1` [Example 6-122], the pIC50 was above 7.00.

On to `O=C(CN1C(=O)OC2(CCC(F)(F)CC2)C1=O)c1ccc(-c2nccc3ccncc23)cc1` [Example 7-22], for which the pIC50 was above 8.00.

For the compound `Cc1nc2ccccc2n1-c1ccc(C(=O)CN2C(=O)NC3(CCC(F)(F)CC3)C2=O)cn1` [Example 5-14], the pIC50 is above 8.00.

`O=C(CN1C(=O)NC2(CCC(F)(F)CC2)C1=O)c1ccc(-c2cccnc2OCCO)cc1` [Example 6-17]: the negative logarithm of the IC50 (pIC50) is above 7.00.

For the compound `Cc1ncccc1-c1ccc(C(=O)CN2C(=O)NC3(CCCCC3)C2=O)cc1` [Example 7-1], the pIC50 was above 8.00.

For `O=C(CN1C(=O)NC2(CCC(F)(F)CC2)C1=O)c1ccc(-c2cccc3ccncc23)nc1` [Example 9-12], the pIC50 is above 8.00.

In the case of `O=C(CN1C(=O)NC2(CCC(F)(F)CC2)C1=O)c1ccc(-c2ncnc3[nH]ccc23)cc1` [Example 6-8], the pIC50 was above 8.00.

Take `O=C(CN1C(=O)NC2(CCC(F)(F)CC2)C1=O)c1ccc(-c2ncnc3ncccc23)cc1` [Example 6-59]: the pIC50 is above 6.30.

For the compound `Cc1ccccc1-n1ncc(C(=O)CN2C(=O)NC3(CCC(F)(F)CC3)C2=O)c1C` [Example 4-12], the pIC50 is above 6.30.

With `Cc1c(C(=O)CN2C(=O)NC3(CCCCC3)C2=O)nn(C)c1-c1cccnc1` [Example 4-8], the pIC50 was above 6.30.

For `N#Cc1cncnc1-c1ccc(C(=O)CN2C(=O)NC3(CCC(F)(F)CC3)C2=O)cc1` [Example 6-93], the pIC50 is above 6.30.

Take `Cc1cccc(Oc2ccc(C(=O)CN3C(=O)NC4(CCCCC4)C3=O)cn2)c1` [Example 20-3]: the pIC50 is above 6.30.

Turning to `O=C(CN1C(=O)NC2(CCC(F)(F)CC2)C1=O)c1ccc(-c2ccc3ccccc3n2)cc1` [Example 13-47], the pIC50 was above 7.00.

With `Cc1cc(C(=O)CN2C(=O)NC3(CCC(F)(F)CC3)C2=O)ccc1-c1ccccc1` [Example 13-14], the pIC50 is above 7.00.

In the case of `N#Cc1ncccc1-c1ccc(C(=O)CN2C(=O)NC3(CCC(F)(F)CC3)C2=O)cc1` [Example 6-15], the negative logarithm of the IC50 (pIC50) was above 7.00.

Regarding `COc1ccccc1-c1sc(C(=O)CN2C(=O)NC3(CCC(F)(F)CC3)C2=O)cc1C` [Example 14-12], the pIC50 is above 7.00.

In the case of `O=C(CN1C(=O)NC2(CCC(F)(F)CC2)C1=O)c1ccc(-c2cnccc2CO)nc1` [Example 9-24], the negative-log IC50 (pIC50) was above 7.00.

As for `O=C(CN1C(=O)NC2(CCC(F)(F)CC2)C1=O)c1ccc(Oc2cccnc2)cc1F` [Example 21-16], the negative-log IC50 (pIC50) was above 6.30.

With `O=C(CN1C(=O)NC2(CCC(F)(F)CC2)C1=O)c1ccc(Oc2cccnn2)cc1` [Example 5-22], the negative-log IC50 (pIC50) was above 7.00.

With `O=C(CN1C(=O)NC2(CCC(F)(F)CC2)C1=O)c1ccc(-c2ccccn2)cc1` [Example 13-49], the pIC50 is above 7.00.

With `Cc1nc(C(=O)CN2C(=O)NC3(CCC(F)(F)CC3)C2=O)n(C)c1-c1cccnc1` [Example 17-12], the pIC50 is above 6.30.

On to `Cc1ccc2nc(CO)n(-c3ccc(C(=O)CN4C(=O)NC5(CCC(F)(F)CC5)C4=O)cc3)c2n1` [Example 28-5, 8,8-difluoro-3-(2-(4-(2-(hydroxymethyl)-5-methyl-3H-imidazo[4,5-b]pyridin-3-yl)phenyl)-2-oxoethyl)-1,3-diazaspiro[4,5]decane-2,4-dione], for which the pIC50 is above 7.00.

Turning to `Cc1cc(-n2c(C)cc(C(=O)CN3C(=O)OC4(CC5CCC4C5)C3=O)c2C)no1` (centres unmarked) [Example 1-4], the pIC50 was above 6.30.

As for `O=C(CN1C(=O)NC2(CCC(F)(F)CC2)C1=O)c1ccc(Oc2ncccc2Cl)cc1` [Example 21-2, 3-(2-(4-((3-chloropyridin-2-yl)oxy)phenyl)-2-oxoethyl)-8,8-difluoro-1,3-diazaspiro[4.5]decane-2,4-dione], the pIC50 was above 7.00.

Turning to `Cc1nc2ccccc2n1-c1ccc(C(=O)CN2C(=O)NC3(CCC(F)(F)CC3)C2=O)cc1` [Example 5-8], the negative logarithm of the IC50 (pIC50) is above 7.00.

For `Cc1ncccc1-c1sc(C(=O)CN2C(=O)NC3(CCC(F)(F)CC3)C2=O)nc1C` [Example 18-8], the pIC50 is above 6.30.

Regarding `Cc1ccncc1-c1sc(C(=O)CN2C(=O)NC3(CCCCC3)C2=O)cc1C` [Example 14-3], the pIC50 was above 7.00.

Regarding `O=C(CN1C(=O)NC2(CCC(F)(F)CC2)C1=O)c1ccc(-c2ncn3ccccc23)cc1` [Example 6-64], the pIC50 is above 6.30.

For the compound `O=C(CN1C(=O)NC2(CCC(F)(F)CC2)C1=O)c1ccc(-c2cccc3ccncc23)c(Cl)c1` [Example 13-29], the pIC50 was above 7.00.

As for `O=C(CN1C(=O)NC2(CCC(F)(F)CC2)C1=O)c1ccc(-c2cncc3ccccc23)nc1` [Example 9-16], the pIC50 was above 7.00.

Consider `Cc1cc(-n2c(C)cc(C(=O)CN3C(=O)NC4(CCC(F)(F)CC4)C3=O)c2C)no1` [Example 1-1, 3-(2-(2,5-dimethyl-1-(5-methylisoxazol-3-yl)-1H-pyrrol-3-yl)-2-oxoethyl)-8,8-difluoro-1,3-diazaspiro[4.5]decane-2,4-dione], for which the pIC50 is above 7.00.

On to `N#Cc1cccc(-c2ccc(C(=O)CN3C(=O)NC4(CCC(F)(F)CC4)C3=O)cc2Cl)c1` [Example 13-68], for which the pIC50 was above 6.30.

As for `COc1nccnc1-c1ccc(C(=O)CN2C(=O)NC3(CCC(F)(F)CC3)C2=O)cc1` [Example 6-97], the pIC50 was above 7.00.

On to `Cc1nc(C(=O)CN2C(=O)NC3(CCC(F)(F)CC3)C2=O)sc1-c1ccccc1C#N` [Example 18-6], for which the pIC50 is above 7.00.

As for `COc1cccc(-c2c(C)cc(C(=O)CN3C(=O)NC4(CCC(F)(F)CC4)C3=O)n2C)c1` [Example 16-14], the pIC50 was above 7.00.

Take `Cc1nc2ccccc2n1-c1cnc(C(=O)CN2C(=O)NC3(CCC(F)(F)CC3)C2=O)cn1` [Example 19-33]: the pIC50 was above 8.00.

For `Cc1ccccc1-c1sc(C(=O)CN2C(=O)NC3(CCC(F)(F)CC3)C2=O)cc1C` [Example 14-11], the pIC50 is above 7.00.

As to `O=C(CN1C(=O)NC2(CCC(F)(F)CC2)C1=O)c1ccc(Sc2ccccc2)nc1` [Example 20-9], the pIC50 was above 6.30.

On to `N#Cc1ccccc1-c1ccc(C(=O)CN2C(=O)NC3(CCCCC3)C2=O)cn1` [Example 9-8], for which the pIC50 is above 7.00.

On to `Cc1nc(C(=O)CN2C(=O)NC3(CCC(F)(F)CC3)C2=O)n(C)c1-c1cccc(C#N)c1` [Example 17-8], for which the pIC50 was above 7.00.

Turning to `Cc1cc(C(=O)CN2C(=O)NC3(CCC(F)(F)CC3)C2=O)sc1-c1cncc(F)c1` [Example 14-17], the pIC50 is above 7.00.

As to `Cc1cccc(-n2c(C)cc(C(=O)CN3C(=O)NC4(CCC(F)(F)CC4)C3=O)c2C)n1` [Example 3-13], the pIC50 was above 7.00.
